System: liver fibrosis gene panel (770 genes)
Assay: Nanostring nCounter Fibrosis panel gene expression in liver of DEN-injected mice
Type: in vivo, mouse
Experimental: Nanostring Analysis. RNA was extracted from paired liver and tumor tissue from vehicle, Compound I-1 (100 mg/kg) and Compound I-32 (100 mg/kg) treated mice using an RNeasy kit (Qiagen, Calif., USA) as per manufacturer's protocol. All RNA samples passed the BioAnalyzer quality control test. The expression of target genes in liver and tumor were analyzed using the nCounter Fibrosis and Cancer Panel (NanoString Technologies, Inc., WA, USA), respectively according to manufacturer's protocol at the McMaster Genomics Facility. Technical and biological normalization against global geometric mean was performed in nSolver 4.0 software (NanoString Technologies). Technical normalization was performed in the nSolver software (version 4.0.70) by normalizing sample target raw counts to the geometric mean of positive control spike-ins. Biological normalization was performed by normalizing sample target raw counts to the geometric mean of selected housekeeping genes (Ppia, Nubp1, Nol7, Armh3, Rplp0, Cnot10, Pgk1, and Acad9). Pathway scores were calculated as the first principal component of the normalized expression values for all genes in each pathway and samples were compiled according to experimental groups to determine average pathway scores. Statistical significance was calculated between experimental groups using multiple t-tests and p-values were corrected for multiple comparisons using Benjamin-Hochberg false discovery rate.
Molecular analysis. To identify the pathways modulated in the liver and tumor tissue, nanostring analysis of fibrosis and cancer, pathways, respectively were completed in an n=8 mice treated with vehicle or Compound I-32 or Compound I-1 at 100 mg/kg.

With `CC(C)(CCCCc1cccc(CCCCC(C)(C)C(=O)O)c1)C(=O)O` [Compound I-32, 6-[3-(5-carboxy-5-methylhexyl)-phenyl]-2,2-dimethylhexanoic acid] the “number of genes downregulated” value (100 mg/kg, 4 weeks) was 159, the “number of genes upregulated” value (100 mg/kg, 4 weeks) was 71 and the “number of genes with altered expression relative to vehicle controls (770 genes measured)” value (100 mg/kg, 4 weeks) was 231. For the same compound, the “Adh1 Log2FC” value (NM_007409, 100 mg/kg, vs vehicle) was 0.536, the “Aldh3a2 Log2FC” value (NM_007437, 100 mg/kg, vs vehicle) was 0.869 and the “Prdx6 Log2FC” value (NM_007453, 100 mg/kg, vs vehicle) was −0.595. For the same compound, the “Apoa4 Log2FC” value (NM_007468, 100 mg/kg, vs vehicle) was −3.4, the “Atp6v1e1 Log2FC” value (NM_007510, 100 mg/kg, vs vehicle) was 0.153 and the “Casp7 Log2FC” value (NM_007611, 100 mg/kg, vs vehicle) was −0.31. For the same compound, the “Cd36 Log2FC” value (NM_007643, 100 mg/kg, vs vehicle) was 1.02, the “Cdh2 Log2FC” value (NM_007664, 100 mg/kg, vs vehicle) was −0.165 and the “Cebpa Log2FC” value (NM_007678, 100 mg/kg, vs vehicle) was −0.413. For the same compound, the “Cfi Log2FC” value (NM_007686, 100 mg/kg, vs vehicle) was −0.395, the “Chil1 Log2FC” value (NM_007695, 100 mg/kg, vs vehicle) was 2.58 and the “Col1a2 Log2FC” value (NM_007743, 100 mg/kg, vs vehicle) was −0.588. For the same compound, the “Cox6a1 Log2FC” value (NM_007748, 100 mg/kg, vs vehicle) was 0.336, the “Cox7c Log2FC” value (NM_007749, 100 mg/kg, vs vehicle) was 0.459 and the “Crp Log2FC” value (NM_007768, 100 mg/kg, vs vehicle) was −0.857. For the same compound, the “Ctsb Log2FC” value (NM_007798, 100 mg/kg, vs vehicle) was −0.216, the “Cybb Log2FC” value (NM_007807, 100 mg/kg, vs vehicle) was −0.644 and the “Cyp2c29 Log2FC” value (NM_007815, 100 mg/kg, vs vehicle) was −0.646. The “Cyp7a1 Log2FC” value (NM_007824, 100 mg/kg, vs vehicle) was −1.38, the “Diaph1 Log2FC” value (NM_007858, 100 mg/kg, vs vehicle) was −0.265 and the “Ephx2 Log2FC” value (NM_007940, 100 mg/kg, vs vehicle) was 0.562. The “F5 Log2FC” value (NM_007976, 100 mg/kg, vs vehicle) was −0.29, the “Fas Log2FC” value (NM_007987, 100 mg/kg, vs vehicle) was 0.226 and the “Fasn Log2FC” value (NM_007988, 100 mg/kg, vs vehicle) was 1.09. The “Slc37a4 Log2FC” value (NM_008063, 100 mg/kg, vs vehicle) was −0.843, the “Gas1 Log2FC” value (NM_008086, 100 mg/kg, vs vehicle) was −0.696 and the “Gpc4 Log2FC” value (NM_008150, 100 mg/kg, vs vehicle) was −0.381. The “Hadh Log2FC” value (NM_008212, 100 mg/kg, vs vehicle) was 0.258, the “Hsd11b1 Log2FC” value (NM_008288, 100 mg/kg, vs vehicle) was −1.23 and the “Hsd17b4 Log2FC” value (NM_008292, 100 mg/kg, vs vehicle) was 0.446. The “Irf8 Log2FC” value (NM_008320, 100 mg/kg, vs vehicle) was −0.357, the “Il10ra Log2FC” value (NM_008348, 100 mg/kg, vs vehicle) was −0.578 and the “Itch Log2FC” value (NM_008395, 100 mg/kg, vs vehicle) was −0.295. For the same compound, the “Kikb1 Log2FC” value (NM_008455, 100 mg/kg, vs vehicle) was −0.217, the “Lpl Log2FC” value (NM_008509, 100 mg/kg, vs vehicle) was 1.8 and the “Lrp1 Log2FC” value (NM_008512, 100 mg/kg, vs vehicle) was −0.376. The “Cd180 Log2FC” value (NM_008533, 100 mg/kg, vs vehicle) was −0.606, the “Masp1 Log2FC” value (NM_008555, 100 mg/kg, vs vehicle) was −0.26 and the “Anapc1 Log2FC” value (NM_008569, 100 mg/kg, vs vehicle) was −0.316. The “Mmp12 Log2FC” value (NM_008605, 100 mg/kg, vs vehicle) was −2.05, the “Mmp14 Log2FC” value (NM_008608, 100 mg/kg, vs vehicle) was −0.465 and the “Nedd8 Log2FC” value (NM_008683, 100 mg/kg, vs vehicle) was 0.0875. For the same compound, the “Pcx Log2FC” value (NM_008797, 100 mg/kg, vs vehicle) was −0.521, the “Plcb3 Log2FC” value (NM_008874, 100 mg/kg, vs vehicle) was −0.297 and the “Plg Log2FC” value (NM_008877, 100 mg/kg, vs vehicle) was −0.296. For the same compound, the “Ppm1a Log2FC” value (NM_008910, 100 mg/kg, vs vehicle) was 0.136, the “Map2k1 Log2FC” value (NM_008927, 100 mg/kg, vs vehicle) was −0.177 and the “Saa1/2 Log2FC” value (NM_009117, 100 mg/kg, vs vehicle) was −1.96. The “Scd1 Log2FC” value (NM_009127, 100 mg/kg, vs vehicle) was 0.602, the “Scd2 Log2FC” value (NM_009128, 100 mg/kg, vs vehicle) was 0.949 and the “Sorbs1 Log2FC” value (NM_009166, 100 mg/kg, vs vehicle) was −0.302. For the same compound, the “Sem1 Log2FC” value (NM_009169, 100 mg/kg, vs vehicle) was 0.298, the “Ssr4 Log2FC” value (NM_009279, 100 mg/kg, vs vehicle) was −0.228 and the “Tgfbr1 Log2FC” value (NM_009370, 100 mg/kg, vs vehicle) was −0.309. The “Traf2 Log2FC” value (NM_009422, 100 mg/kg, vs vehicle) was −0.346, the “Tnfsf10 Log2FC” value (NM_009425, 100 mg/kg, vs vehicle) was −0.692 and the “Axl Log2FC” value (NM_009465, 100 mg/kg, vs vehicle) was −0.418. The “Ap1g1 Log2FC” value (NM_009677, 100 mg/kg, vs vehicle) was −0.189, the “Apoa1 Log2FC” value (NM_009692, 100 mg/kg, vs vehicle) was −0.481 and the “Apob Log2FC” value (NM_009693, 100 mg/kg, vs vehicle) was −0.227. The “Bcl2l1 Log2FC” value (NM_009743, 100 mg/kg, vs vehicle) was −0.248, the “Serping1 Log2FC” value (NM_009776, 100 mg/kg, vs vehicle) was −0.66 and the “C3ar1 Log2FC” value (NM_009779, 100 mg/kg, vs vehicle) was −0.825. The “Calm1 Log2FC” value (NM_009790, 100 mg/kg, vs vehicle) was −0.327, the “Casp3 Log2FC” value (NM_009810, 100 mg/kg, vs vehicle) was −0.237 and the “Serpinh1 Log2FC” value (NM_009825, 100 mg/kg, vs vehicle) was −0.531. For the same compound, the “Cdk4 Log2FC” value (NM_009870, 100 mg/kg, vs vehicle) was 0.181, the “Cfh Log2FC” value (NM_009888, 100 mg/kg, vs vehicle) was −1.41 and the “Col3a1 Log2FC” value (NM_009930, 100 mg/kg, vs vehicle) was −0.679. The “Csnk2b Log2FC” value (NM_009975, 100 mg/kg, vs vehicle) was 0.0913, the “Ctsd Log2FC” value (NM_009983, 100 mg/kg, vs vehicle) was 0.331 and the “Cyp4a10/31/32 Log2FC” value (NM_010011, 100 mg/kg, vs vehicle) was 2.88. For the same compound, the “Fcer1g Log2FC” value (NM_010185, 100 mg/kg, vs vehicle) was −0.427, the “Fn1 Log2FC” value (NM_010233, 100 mg/kg, vs vehicle) was −0.584 and the “Got2 Log2FC” value (NM_010325, 100 mg/kg, vs vehicle) was 0.156. For the same compound, the “H2-Aa Log2FC” value (NM_010378, 100 mg/kg, vs vehicle) was −0.4, the “H2-D1 Log2FC” value (NM_010380, 100 mg/kg, vs vehicle) was −0.175 and the “H2-T23 Log2FC” value (NM_010398, 100 mg/kg, vs vehicle) was −0.224. The “Hck Log2FC” value (NM_010407, 100 mg/kg, vs vehicle) was −0.667, the “Hif1a Log2FC” value (NM_010431, 100 mg/kg, vs vehicle) was 0.283 and the “Hmox1 Log2FC” value (NM_010442, 100 mg/kg, vs vehicle) was −0.484. For the same compound, the “Hsp90aa1 Log2FC” value (NM_010480, 100 mg/kg, vs vehicle) was 0.361, the “Icam1 Log2FC” value (NM_010493, 100 mg/kg, vs vehicle) was −0.382 and the “Ikbkb Log2FC” value (NM_010546, 100 mg/kg, vs vehicle) was −0.526. For the same compound, the “II6st Log2FC” value (NM_010560, 100 mg/kg, vs vehicle) was −0.296, the “Ilk Log2FC” value (NM_010562, 100 mg/kg, vs vehicle) was −0.109 and the “Itgb1 Log2FC” value (NM_010578, 100 mg/kg, vs vehicle) was 0.143. For the same compound, the “Fabp5 Log2FC” value (NM_010634, 100 mg/kg, vs vehicle) was 1.44, the “Lepr Log2FC” value (NM_010704, 100 mg/kg, vs vehicle) was 0.604 and the “Psmb8 Log2FC” value (NM_010724, 100 mg/kg, vs vehicle) was −0.801. The “Lyn Log2FC” value (NM_010747, 100 mg/kg, vs vehicle) was −0.295, the “Marco Log2FC” value (NM_010766, 100 mg/kg, vs vehicle) was −1.54 and the “P4hb Log2FC” value (NM_011032, 100 mg/kg, vs vehicle) was −0.765. For the same compound, the “Pck1 Log2FC” value (NM_011044, 100 mg/kg, vs vehicle) was −1.99, the “Pitp Log2FC” value (NM_011125, 100 mg/kg, vs vehicle) was 1.37 and the “Pparg Log2FC” value (NM_011146, 100 mg/kg, vs vehicle) was −0.592. For the same compound, the “Prkdc Log2FC” value (NM_011159, 100 mg/kg, vs vehicle) was −0.525, the “Pros1 Log2FC” value (NM_011173, 100 mg/kg, vs vehicle) was −0.208 and the “Lgmn Log2FC” value (NM_011175, 100 mg/kg, vs vehicle) was −0.601. The “Ptprc Log2FC” value (NM_011210, 100 mg/kg, vs vehicle) was −0.47, the “S100a4 Log2FC” value (NM_011311, 100 mg/kg, vs vehicle) was −0.79 and the “Serpinf1 Log2FC” value (NM_011340, 100 mg/kg, vs vehicle) was −0.208. For the same compound, the “Sod1 Log2FC” value (NM_011434, 100 mg/kg, vs vehicle) was 0.284, the “Srebf1 Log2FC” value (NM_011480, 100 mg/kg, vs vehicle) was −0.634 and the “Thbs2 Log2FC” value (NM_011581, 100 mg/kg, vs vehicle) was −1.01. The “Timp2 Log2FC” value (NM_011594, 100 mg/kg, vs vehicle) was −0.451, the “Tjp2 Log2FC” value (NM_011597, 100 mg/kg, vs vehicle) was 0.199 and the “Tln1 Log2FC” value (NM_011602, 100 mg/kg, vs vehicle) was −0.355. For the same compound, the “Vegfb Log2FC” value (NM_011697, 100 mg/kg, vs vehicle) was 0.521, the “Adh4 Log2FC” value (NM_011996, 100 mg/kg, vs vehicle) was −0.855 and the “Bcap31 Log2FC” value (NM_012060, 100 mg/kg, vs vehicle) was −0.145. The “C9 Log2FC” value (NM_013485, 100 mg/kg, vs vehicle) was −1.25.
